From US20200110072A1, “IMAGING METHODS TO ASSESS THE EFFICACY OF ANTICANCER DRUGS IN VITRO USING SPONTANEOUSLY-FORMING SPHEROIDS” (ROWAN UNIVERSITY, priority 2016, published 2020)
“Also recorded” adds a separate entry of the source. Blank lines part the entries; values can stand above or below the compound they belong to.

Experiments:
spheroids^MARY-X [1] = assay: Spheroids^MARY-X drug screen: bright-field image analysis of spheroid dissolution (dissolution indices); format: cell-based, human; conditions: for Response (deviation from well-circumscribed spheroid edge / spheroid dissolution): increasing doses, bright-field images
Protocol: In particular, the invention provides novel methods for determining drug response and calculating drug potency. In drug screens according to the invention spheroids or spheroids^MARY-X are seeded in multi-well plates, treated with vehicle only (control) and increasing doses of one or more drugs of interest. Following a 24-hr treatment period each well undergoes analysis to assess dissolution of the spheroids^MARY-X (see FIGS. 4A and 4B).
In exemplary embodiments the dissolution index is determined by applying an image analysis program on ImageJ that measures the circularity of an object's area and perimeter where ‘1’ signifies a perfect circle (i.e. intact spheroid) and numbers approaching ‘0’ signify loss of circularity (i.e. dissolute spheroid). Note that ‘0’ signifies a straight line and can never be achieved in image analysis of spheroids given the innate circularity of individual cells (see FIG. 4A). The induction of apoptosis correlates with the loss of well-circumscribed edges of the usually tight, compact spheroids, i.e. dissolution is consistent with cell death of the spheroid/embolus.
Spheroids^MARY-X Dissolution Indices: The spheroid dissolution index was determined by applying an image analysis program on ImageJ that measures the circularity of an object's area and perimeter where ‘1’ signifies a perfect circle (i.e. intact spheroid) and numbers approaching ‘0’ signify loss of circularity (i.e. dissolute spheroid). Note that ‘0’ signifies a straight line and can never be achieved in image analysis of spheroids given the innate circularity of individual cells.
Drug Screen: The 40-100 μm spheroids were distributed in equal number (˜30-50 spheroids/well) to a multi-well plate. The spheroids^MARY-X was treated with vehicle only (DMSO) and increasing doses of drug of interest in each 24-well plate. Following 24 hr treatment periods each well was imaged and analyzed with ImageJ for measurement of dissolution of the spheroids^MARY-X. The induction of apoptosis is correlated with the loss of the well circumscribed edges of the usually tight, compact spheroids^MARY-X i.e. dissolution is consistent with cell death of the spheroid/embolus.

spheroids^MARY-X [2] = assay: Spheroids^MARY-X dual-fluorescence viability assay (acridine orange / propidium iodide, Cellometer K2); format: cell-based, human; conditions: 24-hour treatment; for Response in dual fluorescence viability assay: AO/PI staining; for IC50: Homo sapiens, AO/PI, read-out: IC50 from dose-response curve, dual fluorescence viability assay
Protocol: Spheroids^MARY-X Viability Assay: Dual-fluorescent assays were performed on a Cellometer K2 (Nexcelom Biosciences, Lawrence, Mass.) using the viability stains, acridine orange and propium iodide.
Dissolution indices vs. standard viability assay: In an effort to validate response data acquired by image analysis (i.e. dissolution indices) an alternate method, traditionally used to determine and quantify cell viability, and was performed on a replicate drug screen. This drug screen reproduced drug dose parameters of paclitaxel (PTX), gambogic acid (GA) and MAD28. Viability was measured by dual fluorescence analysis of propidium iodide (PI) and acridine orange (AO). Following the 24-hour treatment period, spheroids^MARY-X were analyzed using the Cellometer K2 in the dual-fluorescence viability assay. The nuclear stains AO and PI were added to the control (vehicle only) and treated spheroids^MARY-X, where AO stains both live and dead (green) cells and PI stains only dead (orange) cells with compromised membranes. Fluorescent images presented here are one of eight random fields captured for the viability analyses.

[3] = test system: triple-negative breast cancer 2-D culture models; conditions: preclinical analysis; cited from earlier work

Compound: CC(C)C[C@H](NC(=O)[C@H](Cc1ccccc1)NC(=O)c1cnccn1)B(O)O [Bortezomib, bortezomib]
Response (deviation from well-circumscribed spheroid edge / spheroid dissolution) (spheroids^MARY-X [1]; 24-hour treatment): Low - Moderate
Response (deviation from well-circumscribed spheroid edge / spheroid dissolution) (spheroids^MARY-X [1]; 24-hour treatment, listed as bortexomib): Low to moderate
Response (deviation from well-circumscribed spheroid edge / spheroid dissolution) (spheroids^MARY-X [1]; 24-hour treatment, listed as bortezomab): slight response
Response (deviation from well-circumscribed spheroid edge / spheroid dissolution) (spheroids^MARY-X [1]; 24-hour treatment, listed as bortezomib): slight response; also recorded: low response

Compound: N.N.[Cl][Pt][Cl] [Cisplatin, cisplatin]
Response (deviation from well-circumscribed spheroid edge / spheroid dissolution) (spheroids^MARY-X [1]; 24-hour treatment): No
Response (deviation from well-circumscribed spheroid edge / spheroid dissolution) (spheroids^MARY-X [1]; 24-hour treatment, listed as cisplatin): no drug response

Compound: COc1cccc2c1C(=O)c1c(O)c3c(c(O)c1C2=O)C[C@@](O)(C(=O)CO)C[C@@H]3O[C@H]1C[C@H](N)[C@H](O)[C@H](C)O1 [Doxorubicin, doxorubicin]
Response (deviation from well-circumscribed spheroid edge / spheroid dissolution) (spheroids^MARY-X [1]; 24-hour treatment): mixed response
Response (deviation from well-circumscribed spheroid edge / spheroid dissolution) (spheroids^MARY-X [1]; 24-hour treatment, listed as Doxorubicin (DOX)): Moderate - Complete

Compound: CC(C)=CCC[C@]1(C)C=Cc2c(O)c3c(c(CC=C(C)C)c2O1)O[C@]12C(=C[C@@H]4C[C@H]1C(C)(C)O[C@@]2(C/C=C(/C)C(=O)O)C4=O)C3=O [Gambogic acid]
Response (deviation from well-circumscribed spheroid edge / spheroid dissolution) (spheroids^MARY-X [1]; 24-hour treatment): complete
IC50 (spheroids^MARY-X [1]; Homo sapiens, as printed in b33 for gambogic acid, read-out: IC50, spheroidal dissolution and apoptosis): 0.54 µM
IC50 (spheroids^MARY-X [1]; Homo sapiens, read-out: IC50 from dissolution indices): 0.54 µM
Response (spheroid dissolution) (spheroids^MARY-X [1]; at 2.5 μM concentration (MAD44: similar concentrations)): complete spheroid dissolution
Response in dual fluorescence viability assay (spheroids^MARY-X [2]): complete
Response in dual fluorescence viability assay (spheroids^MARY-X [2]; listed as GA): complete response
IC50 (spheroids^MARY-X [2]): 1.2 µM

Compound: CS(=O)(=O)CCNCc1ccc(-c2ccc3ncnc(Nc4ccc(OCc5cccc(F)c5)c(Cl)c4)c3c2)o1 [Lapatinib, lapatinib]
Response (deviation from well-circumscribed spheroid edge / spheroid dissolution) (spheroids^MARY-X [1]; 24-hour treatment): Low - Moderate
Response (deviation from well-circumscribed spheroid edge / spheroid dissolution) (spheroids^MARY-X [1]; 24-hour treatment, listed as lapatinib): Low to moderate; also recorded: slight response; also recorded: low response

Compound: CN(Cc1cnc2nc(N)nc(N)c2n1)c1ccc(C(=O)N[C@@H](CCC(=O)O)C(=O)O)cc1 [Methotrexate, methotrexate]
Response (deviation from well-circumscribed spheroid edge / spheroid dissolution) (spheroids^MARY-X [1]; 24-hour treatment): no response and No
Response (deviation from well-circumscribed spheroid edge / spheroid dissolution) (spheroids^MARY-X [1]; 24-hour treatment, listed as methotrexate): no drug response

Compound: CC(C)NCCCn1c(Sc2cc3c(cc2I)OCO3)nc2c(N)ncnc21 [PU-H71]
Response (deviation from well-circumscribed spheroid edge / spheroid dissolution) (spheroids^MARY-X [1]; 24-hour treatment): no response
Response [3]: complete response

IC50 (spheroids^MARY-X [1]; 24-hour treatment, ImageJ circularity, read-out: IC50 from dissolution indices dose-response curve): 7.79 µM
IC50 (spheroids^MARY-X [1]; Homo sapiens, 24 h, 24-hour treatment, ImageJ circularity, read-out: IC50 from dissolution indices dose-response curve): 7.8 µM
Compound: CC(=O)O[C@H]1C(=O)[C@@]2(C)[C@H]([C@H](OC(=O)c3ccccc3)[C@]3(O)C[C@H](OC(=O)[C@H](O)[C@@H](NC(=O)c4ccccc4)c4ccccc4)C(C)=C1C3(C)C)[C@]1(OC(C)=O)CO[C@@H]1C[C@@H]2O [Paclitaxel, paclitaxel]
Response (deviation from well-circumscribed spheroid edge / spheroid dissolution) (spheroids^MARY-X [1]; 24-hour treatment): virtually ineffective
Response (spheroids^MARY-X [1]; at a 5.0 μM concentration): no to low
Response in dual fluorescence viability assay (spheroids^MARY-X [2]): ineffective at producing a ‘complete’ response
Response in dual fluorescence viability assay (spheroids^MARY-X [2]; listed as PTX): little if any activity
IC50 (spheroids^MARY-X [2]): 5.4 µM
